Test results as given in patent US20070167511A1, “Medicinal composition for prevention or treatment of overactive bladder accompanying nervous disorder” (KISSEI PHARMACEUTICAL CO,. LTD., priority 2004, published 2007).

Test system: rat spinal cord injured OAB model
Assay: Urodynamic study (cystometry) in rat spinal cord injured OAB model
Format: in vivo
Conditions: conscious female rats with spinal cord transection at Th10, intravenous injection 0.1 mg/kg
Method: Efficacy on Urodynamic Study in Rat Spinal Cord Injured OAB Model
In ether anesthetized female rats, spinal cord transection was performed at the level of Th10. About 1 month after the spinal cord transection, each rat was anesthetized with pentobarbital and a catheter filled with saline was implanted into the urinary bladder, ligated, secured on the back of the neck and closed. Seven days after the bladder catheter implantation, another catheter filled with heparin-containing saline was implanted into the […], and ligated, secured on the back of the neck and closed. The next day, cystometry was performed in the conscious rat under free moving. Saline was instilled into the urinary bladder at a rate of 12 mL/hr. A drug was injected through the […] catheter that was secured on the back of the neck. […] Intravenous injection of compound 1 (0.1 mg/kg) prolonged the micturition interval by about 20% (FIG. 1) and decreased the frequency of involuntary contraction in filling phase by 20% (FIG. 2) in the same model.

C[C@H](Cc1cc2c(c(C(N)=O)c1)N(CCCO)CC2)NCCOc1ccccc1OCC(F)(F)F [compound 1, (−)-1-(3-hydroxypropyl)-5-((2R)-2-{[2-({2-[(2,2,2-trifluoroethyl)oxy]phenyl}oxy)ethyl]amino}propyl)-2,3-dihydro-1H-indol-7-yl-carboxamide]
prolongation of the micturition interval (versus value before drug administration (FIG. 1)): about 20% | decrease of the frequency of involuntary contraction in filling phase (versus value before drug administration (FIG. 2)): 20%
